Source: paper PMC7363588, “Mapping of the FGF14:Nav1.6 complex interface reveals FLPK as a functionally active peptide modulating excitability” (Physiological Reports, 2020)
Where “and” joins values, the source holds several entries; their conditions need not be identical. Identical values can stand only once. Entries after “also recorded” stand apart in the source; their conditions may differ. Peptide text beside a SMILES is read from it.

Target: T1, Nav1.6 (Homo sapiens, UniProt Q9UQD0)
T1 construct: expressed in transfected cells
T1 sequence (Q9UQD0 whole entry): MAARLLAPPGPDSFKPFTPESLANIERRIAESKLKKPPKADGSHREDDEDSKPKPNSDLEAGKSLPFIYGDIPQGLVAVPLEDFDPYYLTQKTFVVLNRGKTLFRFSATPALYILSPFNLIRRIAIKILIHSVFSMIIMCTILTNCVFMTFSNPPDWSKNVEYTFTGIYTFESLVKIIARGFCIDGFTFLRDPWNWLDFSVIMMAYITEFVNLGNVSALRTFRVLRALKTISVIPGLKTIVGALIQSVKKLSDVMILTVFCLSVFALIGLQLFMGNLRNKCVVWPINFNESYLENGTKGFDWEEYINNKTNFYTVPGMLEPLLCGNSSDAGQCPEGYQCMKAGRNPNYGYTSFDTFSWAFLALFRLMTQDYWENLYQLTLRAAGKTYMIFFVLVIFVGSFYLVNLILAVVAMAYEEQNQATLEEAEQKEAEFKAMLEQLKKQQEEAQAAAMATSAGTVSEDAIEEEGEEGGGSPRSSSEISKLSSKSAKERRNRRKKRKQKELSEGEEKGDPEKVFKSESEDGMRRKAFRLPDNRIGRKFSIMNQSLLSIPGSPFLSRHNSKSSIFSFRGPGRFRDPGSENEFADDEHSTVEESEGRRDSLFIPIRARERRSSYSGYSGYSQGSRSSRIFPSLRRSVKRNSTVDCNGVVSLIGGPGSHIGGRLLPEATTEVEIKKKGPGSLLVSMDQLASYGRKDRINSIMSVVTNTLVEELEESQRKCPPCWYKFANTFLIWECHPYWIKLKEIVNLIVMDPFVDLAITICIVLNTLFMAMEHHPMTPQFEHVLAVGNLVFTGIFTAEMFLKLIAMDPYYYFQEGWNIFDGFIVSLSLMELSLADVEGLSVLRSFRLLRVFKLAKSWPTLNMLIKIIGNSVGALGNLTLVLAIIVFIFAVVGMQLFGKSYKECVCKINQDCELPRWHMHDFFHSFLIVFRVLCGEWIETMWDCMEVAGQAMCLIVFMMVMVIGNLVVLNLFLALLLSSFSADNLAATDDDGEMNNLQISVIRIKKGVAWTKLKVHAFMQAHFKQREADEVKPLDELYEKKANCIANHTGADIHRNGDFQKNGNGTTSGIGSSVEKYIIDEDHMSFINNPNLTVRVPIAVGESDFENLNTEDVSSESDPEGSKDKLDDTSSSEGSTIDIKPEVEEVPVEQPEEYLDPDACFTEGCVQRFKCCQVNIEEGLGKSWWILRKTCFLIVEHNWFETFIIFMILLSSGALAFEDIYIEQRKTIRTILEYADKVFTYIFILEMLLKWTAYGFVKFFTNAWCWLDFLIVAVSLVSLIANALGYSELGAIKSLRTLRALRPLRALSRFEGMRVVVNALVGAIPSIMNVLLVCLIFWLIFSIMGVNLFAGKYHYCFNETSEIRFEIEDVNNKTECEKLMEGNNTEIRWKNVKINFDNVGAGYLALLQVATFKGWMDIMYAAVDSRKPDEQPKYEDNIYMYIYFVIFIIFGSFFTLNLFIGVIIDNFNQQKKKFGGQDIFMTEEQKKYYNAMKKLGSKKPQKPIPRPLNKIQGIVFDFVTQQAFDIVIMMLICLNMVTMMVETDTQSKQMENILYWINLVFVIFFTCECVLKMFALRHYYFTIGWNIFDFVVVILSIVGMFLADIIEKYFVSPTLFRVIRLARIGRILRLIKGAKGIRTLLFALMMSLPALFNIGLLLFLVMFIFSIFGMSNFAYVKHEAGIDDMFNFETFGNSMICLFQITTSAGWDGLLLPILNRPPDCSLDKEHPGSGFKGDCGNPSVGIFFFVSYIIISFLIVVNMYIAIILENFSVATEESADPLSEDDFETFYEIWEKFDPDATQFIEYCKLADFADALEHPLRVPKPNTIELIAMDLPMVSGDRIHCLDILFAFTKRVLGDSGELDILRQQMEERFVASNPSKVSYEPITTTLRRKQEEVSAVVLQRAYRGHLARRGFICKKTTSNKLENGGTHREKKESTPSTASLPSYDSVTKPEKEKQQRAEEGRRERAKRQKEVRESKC
Test: Whole-cell patch-clamp, HEK-Nav1.6 cells expressing GFP
Assay type: cell-based
Details: 50 μM FLPK
Method: HEK293 cells were maintained in DMEM and F‐12 (Invitrogen, Carlsbad, CA), supplemented with 0.05% glucose, 0.5 mM pyruvate, 10% fetal bovine serum, 100 units/ml penicillin, and 100 µg/ml streptomycin (Invitrogen), and incubated at 37 °C with 5% CO2. HEK293 cells stably expressing the human Nav1.6 channel (hereafter referred to as HEK‐Nav1.6 cells) were maintained similarly except for the addition of 500 μg/ml G418 (Invitrogen) to maintain stable Nav1.6 expression. Cells were transfected at 80%–90% confluence with equal amount (1 μg each) of plasmid pairs using Lipofectamine 2000 (Invitrogen) according to manufacturer's instructions. HEK‐Nav1.6 cells were washed and replated at very low density prior to electrophysiological recordings (Ali et al., 2016, 2018; Scala et al., 2018; Wadsworth et al., 2019).
HEK‐Nav1.6 cells transfected with GFP or FGF14‐GFP were plated at low density on glass cover slips for 3–4 hr and subsequently transferred to the recording chamber. Recordings were performed at room temperature (20–22°C) 24 hr posttransfection using a MultiClamp 700B amplifier (Molecular Devices, Sunnyvale, CA). The composition of recording solutions consisted of the following salts; extracellular (mM): 140 NaCl, 3 KCl, 1 MgCl2, 1 CaCl2, 10 HEPES, 10 glucose, pH 7.3; intracellular (mM): 130 CH3O3SCs, 1 EGTA, 10 NaCl, 10 HEPES, pH 7.3. Membrane capacitance and series resistance were estimated by the dial settings on the amplifier and compensated for electronically by 70%–75%. Data were acquired at 20 kHz and filtered at 5 kHz prior to digitization and storage. All experimental parameters were controlled by Clampex 9.2 software (Molecular Devices) and interfaced to the electrophysiological equipment using a Digidata 1,200 analog‐digital interface (Molecular Devices). Voltage‐dependent inward currents for HEK‐Nav1.6 cells were evoked by depolarization to test potentials between −100 mV and +60 mV from a holding potential of −70 mV followed by a voltage prestep pulse of −120 mV (Nav1.6). Steady‐state (fast) inactivation of Nav channels was measured with a paired‐pulse protocol. From the holding potential, cells were stepped to varying test potentials between −120 mV (Nav1.6) and +20 mV (prepulse) prior to a test pulse to −20 mV.
Current densities were obtained by dividing Na^+ current (INa) amplitude by membrane capacitance. Current–voltage relationships were generated by plotting current density as a function of the […]. Conductance (GNa) was calculated by the following equation: GNa=INa/Vm‐Erev where INa ^+ is the current amplitude at voltage Vm, and Erev is the Na^+ reversal potential.
Activation curves were derived by plotting normalized GNa as a function of test potential and fitted using the Boltzmann equation: GNa/GNa,Max=1/1+eVa‐Em/k where GNa,Max is the maximum conductance, Va is the membrane potential of half‐maximal activation, Vm is the membrane voltage and k is the slope factor.
The membrane potential of half‐maximal activation, Em is the membrane voltage and k is the slope factor. For steady‐state inactivation, normalized current amplitude (INa/INa,Max) at the test potential was plotted as a function of prepulse potential (Vm) and fitted using the Boltzmann equation: INa/INa,Max=1/1+e‐Vh‐Em/k where Vh is the potential of half‐maximal inactivation, Em is the membrane voltage, and k is the slope factor.
To test whether FLKP had any modulatory effects on Nav1.6‐mediated Na^+ currents, we used whole‐cell patch‐clamp electrophysiology in HEK293 cells stably expressing Nav1.6 (HEK‐Nav1.6) that were transiently transfected with either GFP (HEK‐Nav1.6 GFP) or FGF14‐1b‐GFP (HEK‐Nav1.6 FGF14‐GFP); each group was either treated with FLPK (50 μM from a stock solution dissolved in DMSO) or 0.1% DMSO alone (vehicle) (Figure 5a‐c). […]

## CC(=O)N[C@@H](Cc1ccccc1)C(=O)N[C@@H](CC(C)C)C(=O)N1CCC[C@H]1C(=O)N[C@@H](CCCCN)C(N)=O [FLPK] (Ac-FLPK-NH2)
HEK-Nav1.6 GFP vs 0.1% DMSO
  effect on Nav1.6 currents without FGF14: not statistically different; also recorded: no measurable effects in cells expressing Nav1.6 alone
HEK-Nav1.6 GFP, at −10 mV, mean ± SEM (n = 12), DMSO 1.0 ± 0.08, p = .0495
  Tau (τ), decay time constant of I Na: 0.8 ± 0.03 ms and 0.8 ± 0.03 (12)r ms
HEK-Nav1.6 GFP, at −10 mV, mean ± SEM (n = 14), DMSO −58.6 ± 13.9 (Table 3)
  Peak density (I Na): −80.8 ± 12.2 pA/pF and −80.8 ± 12.2 (14) pA/pF
HEK-Nav1.6 GFP, mean ± SEM (n = 10), DMSO 5.8 ± 0.4
  Kinact: 6.1 ± 0.5 (10) mV
HEK-Nav1.6 GFP, mean ± SEM (n = 10), DMSO −58.9 ± 0.8
  Steady-state Inactivation (V1/2): −59.3 ± 1.9 (10) mV
HEK-Nav1.6 GFP, mean ± SEM (n = 12), DMSO 4.3 ± 0.2
  Kact: 3.9 ± 0.3 (12) mV
HEK-Nav1.6 GFP, mean ± SEM (n = 12), DMSO −21.8 ± 1.3
  Activation (V1/2): −20.5 ± 1.2 (12) mV
